Laboratory results as given in patent US9624214B2, “Amino-substituted imidazo[1,2-a]pyridinecarboxamides and their use” (BAYER PHARMA AKTIENGESELLSCHAFT, priority 2012, dated 2017).

Target: T1, recombinant guanylate cyclase reporter cell line (Rattus norvegicus, UniProt P19686+P20595)
T1 construct: expressed in transfected cells
T1 sequence (P20595 1-619): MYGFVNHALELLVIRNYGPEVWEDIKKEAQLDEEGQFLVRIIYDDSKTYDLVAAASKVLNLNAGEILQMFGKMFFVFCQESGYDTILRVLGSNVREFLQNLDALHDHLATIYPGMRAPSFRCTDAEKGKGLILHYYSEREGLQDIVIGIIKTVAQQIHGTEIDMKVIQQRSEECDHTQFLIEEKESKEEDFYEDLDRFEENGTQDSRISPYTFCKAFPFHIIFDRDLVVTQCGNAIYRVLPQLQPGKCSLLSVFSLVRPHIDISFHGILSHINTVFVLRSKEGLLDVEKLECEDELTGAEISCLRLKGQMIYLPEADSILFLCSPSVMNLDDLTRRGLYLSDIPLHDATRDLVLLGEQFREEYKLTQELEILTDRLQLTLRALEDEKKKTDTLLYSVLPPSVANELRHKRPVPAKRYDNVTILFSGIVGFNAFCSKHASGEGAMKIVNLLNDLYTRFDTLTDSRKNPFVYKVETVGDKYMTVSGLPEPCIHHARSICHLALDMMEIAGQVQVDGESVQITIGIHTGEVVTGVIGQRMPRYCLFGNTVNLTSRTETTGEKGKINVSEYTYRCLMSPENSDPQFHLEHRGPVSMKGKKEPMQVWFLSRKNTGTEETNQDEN
T1 sequence (P19686 1-690): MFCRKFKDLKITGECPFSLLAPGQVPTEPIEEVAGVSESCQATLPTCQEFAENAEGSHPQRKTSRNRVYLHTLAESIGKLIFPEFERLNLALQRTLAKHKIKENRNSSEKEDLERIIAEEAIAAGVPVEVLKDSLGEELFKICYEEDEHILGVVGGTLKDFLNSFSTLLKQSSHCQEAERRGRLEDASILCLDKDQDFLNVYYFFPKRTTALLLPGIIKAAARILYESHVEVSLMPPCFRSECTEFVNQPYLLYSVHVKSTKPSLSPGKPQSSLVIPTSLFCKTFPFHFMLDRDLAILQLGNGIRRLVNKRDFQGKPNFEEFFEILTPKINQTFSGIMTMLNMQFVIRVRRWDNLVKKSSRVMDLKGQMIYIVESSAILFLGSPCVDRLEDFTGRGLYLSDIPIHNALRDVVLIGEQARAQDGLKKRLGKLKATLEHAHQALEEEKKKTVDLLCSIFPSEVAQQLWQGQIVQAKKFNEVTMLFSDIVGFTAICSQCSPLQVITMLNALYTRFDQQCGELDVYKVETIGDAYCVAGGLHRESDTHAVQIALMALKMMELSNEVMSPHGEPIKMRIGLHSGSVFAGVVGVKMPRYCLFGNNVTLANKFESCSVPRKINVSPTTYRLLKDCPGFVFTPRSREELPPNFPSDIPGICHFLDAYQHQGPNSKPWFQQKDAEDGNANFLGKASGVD
Test: B-2. Action on recombinant guanylate cyclase reporter cell line
Type: cell-based
Conditions: MEC = minimal effective concentration; in some cases mean values from individual determinations
Method in brief: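 Reported value is the minimal effective concentration (MEC), in some cases a mean of single runs, taken from a recombinant rat guanylate cyclase reporter cell line.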

SMILES	MEC
Cc1nc2c(OCc3c(F)cccc3F)cccn2c1C(=O)NC1CCNc2ccc(C(F)(F)F)cc21 (single isomer, unassigned; ent-8) [Example 111, ent-8-[(2,6-difluorobenzyl)oxy]-2-methyl-N-[6-(trifluoromethyl)-1,2,3,4-tetrahydroquinolin-4-yl]imidazo[1,2-a]pyridine-3-carboxamide]	1.00 µM
Cc1nc2c(OCc3c(F)cccc3F)cccn2c1C(=O)NC1CCNc2ccc(C(F)(F)F)cc21 (single isomer, unassigned; ent-8) [Example 112, ent-8-[(2,6-difluorobenzyl)oxy]-2-methyl-N-[6-(trifluoromethyl)-1,2,3,4-tetrahydroquinolin-4-yl]imidazo[1,2-a]pyridine-3-carboxamide]	0.10 µM
Cc1nc2c(OCc3c(F)cccc3F)cccn2c1C(=O)NCC(C)N1CCOCC1 (single isomer, unassigned; ent-8) [Example 180, ent-8-[(2,6-Difluorobenzyl)oxy]-2-methyl-N-[2-(morpholin-4-yl)propyl]imidazo[1,2-a]pyridine-3-carboxamide]	1.00 µM
Cc1nc2c(OCc3c(F)cccc3F)cccn2c1C(=O)NCC(C)N1CCOCC1 (single isomer, unassigned; ent-8) [Example 181, ent-8-[(2,6-Difluorobenzyl)oxy]-2-methyl-N-[2-(morpholin-4-yl)propyl]imidazo[1,2-a]pyridine-3-carboxamide]	1.00 µM
Cc1nc2c(OCc3c(F)cccc3F)cccn2c1C(=O)NC(CN1CCOCC1)c1ccccc1 (single isomer, unassigned; ent-8) [Example 182, ent-8-[(2,6-Difluorobenzyl)oxy]-2-methyl-N-[2-(morpholin-4-yl)-1-phenylethyl]imidazo[1,2-a]-pyridine-3-carboxamide]	3.00 µM
Cc1nc2c(OCc3c(F)cccc3F)cccn2c1C(=O)NC(CN1CCOCC1)c1ccccc1 (single isomer, unassigned; ent-8) [Example 183, ent-8-[(2,6-Difluorobenzyl)oxy]-2-methyl-N-[2-(morpholin-4-yl)-1-phenylethyl]imidazo[1,2-a]-pyridine-3-carboxamide]	1.00 µM
Cc1cc(OCc2c(F)cccc2F)c2nc(C)c(C(=O)NCC(C)N3CCOCC3)n2c1 (single isomer, unassigned; ent-8) [Example 186, ent-8-[(2,6-Difluorobenzyl)oxy]-2,6-dimethyl-N-[2-(morpholin-4-yl)propyl]imidazo[1,2-a]-pyridine-3-carboxamide]	0.30 µM
Cc1cc(OCc2c(F)cccc2F)c2nc(C)c(C(=O)NCC(C)N3CCOCC3)n2c1 (single isomer, unassigned; ent-8) [Example 187, ent-8-[(2,6-Difluorobenzyl)oxy]-2,6-dimethyl-N-[2-(morpholin-4-yl)propyl]imidazo[1,2-a]-pyridine-3-carboxamide]	0.30 µM
Cc1nc2c(OCc3c(F)cccc3F)cccn2c1C(=O)NCC(C(C)C)N(C)C (single isomer, unassigned; ent-8) [Example 188, ent-8-[(2,6-Difluorobenzyl)oxy]-N-[2-(dimethylamino)-3-methylbutyl]-2-methylimidazo[1,2-a]-pyridine-3-carboxamide]	1.00 µM
Cc1nc2c(OCc3c(F)cccc3F)cccn2c1C(=O)NCC(C(C)C)N(C)C (single isomer, unassigned; ent-8) [Example 189, ent-8-[(2,6-Difluorobenzyl)oxy]-N-[2-(dimethylamino)-3-methylbutyl]-2-methylimidazo[1,2-a]-pyridine-3-carboxamide]	3.00 µM
Cc1nc2c(OCc3c(F)cccc3F)cccn2c1C(=O)NC(CNCC(F)(F)F)c1ccc(F)c(F)c1 (single isomer, unassigned; ent-8) [Example 222, ent-8-[(2,6-Difluorobenzyl)oxy]-N-{1-(3,4-difluorophenyl)-2-[(2,2,2-trifluoroethyl)amino]ethyl}-2-methylimidazo[1,2-a]pyridine-3-carboxamide]	0.30 µM
CCC1CC(NC(=O)c2c(C)nc3c(OCc4c(F)cccc4F)cc(C)cn23)c2nc(C(F)(F)F)ccc2N1 (single isomer, unassigned; ent-8) [Example 325, ent-8-[(2,6-Difluorobenzyl)oxy]-N-[2-ethyl-6-(trifluoromethyl)-1,2,3,4-tetrahydro-1,5-naphthyridin-4-yl]-2,6-dimethylimidazo[1,2-a]pyridine-3-carboxamide]	0.30 µM
Cc1cc(OCc2c(F)cccc2F)c2nc(C)c(C(=O)NC3CC(C)Nc4ccc(C(F)(F)F)nc43)n2c1 (single isomer, unassigned; ent-8) [Example 326, ent-8-[(2,6-Difluorobenzyl)oxy]-2,6-dimethyl-N-[2-methyl-6-(trifluoromethyl)-1,2,3,4-tetrahydro-1,5-naphthyridin-4-yl]imidazo[1,2-a]pyridine-3-carboxamide]	0.30 µM
Cc1nc2c(OCc3c(F)cccc3F)cccn2c1C(=O)NC1CC2CCCC(C1)N2C1CC1 (stereo not drawn) [Example 1, N-(9-Cyclopropyl-9-azabicyclo[3.3.1]non-3-yl)-8-[(2,6-difluorobenzyl)oxy]-2-methylimidazo[1,2-a]pyridine-3-carboxamide]	0.10 µM
Cc1nc2c(OCc3c(F)cccc3F)cccn2c1C(=O)NC(CN)c1ccc(F)cc1F (stereo not drawn) [Example 21, ent-N-[2-Amino-1-(2,4-difluorophenyl)ethyl]-8-[(2,6-difluorobenzyl)oxy]-2-methylimidazo[1,2-a]-pyridine-3-carboxamide]	0.30 µM
Cc1nc2c(OCc3c(F)cccc3F)cc(Cl)cn2c1C(=O)NC(C)CN (stereo not drawn) [Example 22, ent-N-(1-aminopropan-2-yl)-6-chloro-8-[(2,6-difluorobenzyl)oxy]-2-methylimidazo[1,2-a]-pyridine-3-carboxamide]	0.30 µM
Cc1nc2c(OCc3c(F)cccc3F)cc(Cl)cn2c1C(=O)NC(C)(C)CN [Example 24, N-(1-amino-2-methylpropan-2-yl)-6-chloro-8-[(2,6-difluorobenzyl)oxy]-2-methylimidazo[1,2-a]pyridine-3-carboxamide]	0.65 µM
Cc1cc(OCc2c(F)cccc2F)c2nc(C)c(C(=O)NC(C)(C)CN)n2c1 [Example 26, N-(1-amino-2-methylpropan-2-yl)-8-[(2,6-difluorobenzyl)oxy]-2,6-dimethylimidazo [1,2-a]-pyridine-3-carboxamide]	0.30 µM
Cc1nc2c(OCc3c(F)cccc3F)cccn2c1C(=O)NC1CC2CCCC(C1)N2 (stereo not drawn) [Example 27, N-(9-azabicyclo[3.3.1]non-3-yl)-8-[(2,6-difluorobenzyl)oxy]-2-methylimidazo[1,2-a]-pyridine-3-carboxamide]	1.00 µM
Cc1nc2c(OCc3c(F)cccc3F)cc(Cl)cn2c1C(=O)NCCC1(N)CCCCC1 [Example 33, N-[2-(1-Aminocyclohexyl)ethyl]-6-chloro-8-[(2,6-difluorobenzyl)oxy]-2-methylimidazo[1,2-a]-pyridine-3-carboxamide]	0.30 µM
CC[C@@H](N)CNC(=O)c1c(C)nc2c(OCc3c(F)cccc3F)cc(Cl)cn12 [Example 35, ent-N-[(2R)-2-aminobutyl]-6-chloro-8-[(2,6-difluorobenzyl)oxy]-2-methylimidazo[1,2-a]-pyridine-3-carboxamide]	1.00 µM
Cc1nc2c(OCc3c(F)cccc3F)cc(Cl)cn2c1C(=O)NCCN [Example 36, N-(2-aminoethyl)-6-chloro-8-[(2,6-difluorobenzyl)oxy]-2-methylimidazo[1,2-a]-pyridine-3-carboxamide]	1.00 µM
Cc1nc2c(OCc3c(F)cccc3F)cc(Cl)cn2c1C(=O)NCCCN [Example 37, N-(3-aminopropyl)-6-chloro-8-[(2,6-difluoro-benzyl)oxy]-2-methylimidazo[1,2-a]pyridine-3-carboxamide]	1.00 µM
Cc1nc2c(OCc3c(F)cccc3F)cccn2c1C(=O)NCC1(N)CC1 [Example 38, N-[(1-aminocyclopropyl)methyl]-8-[(2,6-difluorobenzyl)oxy]-2-methylimidazo[1,2-a]-pyridine-3-carboxamide]	0.40 µM
